Experimental data taken from PMC3772838, “Preclinical Development of a Novel Class of CXCR4 Antagonist Impairing Solid Tumors Growth and Metastases” (PLoS ONE, 2013).
Like-named read-outs stand apart in the source and are kept apart here. Bridges are numbered along the chain shown (N, C = ends). Where no end group is shown, it is not given here.

Experiments:
CXCR4 [1] = assay: Competition with 12G5 anti-CXCR4 antibody binding (flow cytometry); parameters: species or system human; settings: CCRF-CEM cells, 10 µM peptide, 30 min pre-incubation at 37°C, PE-labelled 12G5, flow cytometry; at least three experiments
Method: (§1) CXCR4 binding was evaluated as previously described. Briefly 5×10^5 CCRF–CEM cells were pre-incubated with 10 µM peptides or AMD3100 in binding buffer (PBS 1× plus 0.2% BSA and 0.1% NaN3) for 30 minutes at 37°C, 5% CO2 and then labeled for 30 minutes with anti-CXCR4 PE-antibody (FAB170P, clone 12G5, R&D Systems, Minneapolis, MN, USA). The cells were analyzed by FACS Canto II cytofluorometer (Becton Dickinson Immunocytometry Systems, Mountain View, CA, USA).
(§2) (A) The amount of peptides or AMD3100 bound was assessed indirectly by flow cytometry using the PE-labelled anti-CXCR4 antibody (clone 12G5). Results are expressed as the percent antibody bound. (B) The Ca^2+ influx assay was performed using CCRF-CEM cells and Fluo-3 AM calcium indicator. CCRF-CEM cells were incubated 30 minutes at 37°C with Fluo-3 AM and 15 minutes with AMD3100 (10 µM)/peptides (10 µM) and then treated with CXCL12. Results are expressed as the percent of Fluo-3 AM fluorescence in presence of CXCL12 alone. Each peptide was tested in at least three different experiments. Double tailed T-Test was used for statistical analyses. Differences were considered significant at P<0.05 compared to control. Control (CTRL).

CXCR3 = assay: Anti-CXCR3 antibody (clone 1C6/CXCR3) binding in CXCR3 overexpressing cells; parameters: species or system human; settings: COLO205 cells; peptides 10 µM, CXCL11 100 nM, 30 min pre-incubation; Figure S3
Method: [The procedure below names another target; the source says it served here with some conditions changed.] as §1
Fluo-3AM and Pluronic acid were added to each sample to increase Fluo-3AM solubility and improve dye loading into the cells. (TIF) Click here for additional data file.

CXCR4 [2] = assay: CXCL12-induced calcium mobilization assay (Fluo-3 AM); format: cell-based, human; settings: CCRF-CEM cells, 10 µM peptide, percent of fluorescence with CXCL12 alone; at least three experiments
Method: For the calcium efflux studies a 2 mg/mL stock solution of Fluo-3 acetoxymethylester (Invitrogen, Carlsbad, CA) in anhydrous DMSO was used. […] CCRF–CEM cells were resuspended in cell loading buffer (PBS, 1% FCS, 1 mmol/L MgCl2, and 1 mmol/L CaCl2) at 5×10^5 cells/mL. Fluo-3AM and Pluronic acid were added to each sample to increase Fluo-3AM solubility and improve dye loading into the cells. Baseline calcium efflux was established, then chemokines were added as indicated and chemokine-induced calcium efflux was measured.
as §2

[3] = test system: PES43 human melanoma cells; assay: CXCL12-dependent Transwell migration of PES43 cells; format: cell-based; settings: 100 ng/mL CXCL12 in lower chamber, 16 h, tested 10 nM, 100 nM, 1 µM, 10 µM
Method: (§3) Migration was assayed in 24-well Transwell chambers (Corning Inc., Corning, NY) using inserts with an 8-µm pore membrane. Membranes were precoated with collagen (human collagen type I/III) and fibronectin (20 µg/mL each). […] After 16 h incubation, cells on the upper surface of the filter were removed using a cotton wool swab; migration of cells in migration media alone was compared with migration in media containing CXCL12. The cells were counted in ten different fields (original magnification ×40). The migration index was defined as the ratio between migrating cells in the experimental group and migrated cells in the control group. For the wound closure assay, tested cells were allowed to reach confluence in six-well plates containing serum-depleted growth medium and scratched with pipette tips to make wounds. The wound closure was observed microscopically 6 hours post-wounding (OKO Time Lapse).
(§4) Experiments were conducted using PES43 cells. (A) Migration was assayed in 24-well Transwell chambers using inserts with 8-µm pore membrane. […] Migrated cells on the lower surface were fixed, stained with H&E and counted microscopically. The results are expressed as the migration index relative to migration in presence of BSA alone. […] Images were acquired with OKO Time Lapse. […] PES43 cells were serum-starved and incubated with CXCL12 (100 ng/ml) alone or in presence of AMD3100/peptides. Each peptide was tested in at least three different experiments. Double tailed T-Test was used for statistical analyses. Differences were considered significant at P<0.05 compared to control.

P-ERK1/2 = assay: CXCL12-induced p-ERK induction (immunoblotting); format: cell-based, human; settings: PES43 cells serum-starved, CXCL12 100 ng/ml, after 5 minutes
Method: Cells were homogenized in lysis buffer (40 mM Hepes pH 7,5, 120 mM NaCl, 5 mM MgCl2, 1 mM EGTA, 0,5 mM EDTA, 1% Triton X-100) containing protease (Complete Tablets- EDTA-free, Roche) and phosphatase inhibitors (20 mM α-glycerol-3-phosphate, 2,5 mM Na-pyrophosphate). The following primary antibodies were used: anti-p-ERK (sc7383, Santa Cruz Biotechnology, Inc., Santa Cruz, CA, USA) and anti-ERK2 (sc 154G, Santa Cruz Biotechnology CA, USA). P-Erk induction was plotted as ratio P-Erk in the presence of CXCL12 (100 ng/ml)/P-Erk in serum free.
as §4
PES43 cell lines were serum starved for 16 hours. […] (TIF) Click here for additional data file.

[4] = test system: human cancer cell lines (SN12C, RXF393, A498 and PES43); assay: Cytotoxicity on human cancer cell lines; format: cell-based
[5] = test system: SN12C-GFP human renal cancer cells; assay: CXCL12-induced SN12C-GFP migration; format: cell-based; settings: Figure 5
Method: as §3
6 to 8-week-old female CD1 nude mice were injected subcutaneously with 2×10^6 pEGFP-SN12C cells pre-treated with 10 µM AMD3100 or 10 µM of each peptide. […] The experiments were repeated three times.

CXCR4 [6] = assay: Mobilization of hematopoietic precursors and neutrophils; format: in vivo; settings: DBA/2 mouse; for duration of mobilization effect compared to AMD3100: preliminary; for stem cell and neutrophil mobilization relative to AMD3100: preliminary evidence
Excerpt: The development of CXCR4 inhibitors is of increasing interest with AMD3100 (Plerixafor) having been approved by the FDA for stem cell mobilization, [39]. We evaluated peptides R, I and S for their ability to mobilize hematopoietic precursors in a DBA/2 mouse model in a CXCR4 dependent manner.

Arg-Ala-[Cys-Arg-His-Trp-Cys] (RACRHWC; disulfide 3-7) [Peptide S, CXCL12-mimetic disulfide-cyclic peptide]
association of the 12G5-CXCR4 antibody to the receptor (CXCR4 [1]): 17 % of control | binding to CXCR3 (anti-CXCR3 antibody) (CXCR3): unaffected | CXCL12-induced calcium efflux (Fluo-3 AM fluorescence) (CXCR4 [2]): 49.75 % of control | concentration at which CXCL12-dependent migration was inhibited [3]: ≤ 10 nM | CXCL12-mediated p-ERK induction (P-ERK1/2): reduced | cytotoxicity [4]: no toxicity | CXCL12-induced SN12C-GFP migration [5]: inhibited | duration of mobilization effect compared to AMD3100 (CXCR4 [6]): more durable | stem cell and neutrophil mobilization relative to AMD3100 (CXCR4 [6]): as potent stem cell and neutrophil mobilization as does AMD3100

Arg-Ala-[Cys-Arg-Phe-Phe-Cys] (RACRFFC; disulfide 3-7) [Peptide R, CXCL12-mimetic disulfide-cyclic peptide]
association of the 12G5-CXCR4 antibody to the receptor (CXCR4 [1]): 21 % of control | binding to CXCR3 (anti-CXCR3 antibody) (CXCR3): unaffected | CXCL12-induced calcium efflux (Fluo-3 AM fluorescence) (CXCR4 [2]): 51.25 % of control | concentration at which CXCL12-dependent migration was inhibited [3]: ≤ 10 nM | CXCL12-mediated p-ERK induction (P-ERK1/2): reduced | cytotoxicity [4]: no toxicity | CXCL12-induced SN12C-GFP migration [5]: inhibited | duration of mobilization effect compared to AMD3100 (CXCR4 [6]): more durable | stem cell and neutrophil mobilization relative to AMD3100 (CXCR4 [6]): as potent stem cell and neutrophil mobilization as does AMD3100

[Cys-Trp-His-Arg-Cys] (CWHRC; disulfide 1-5) [Peptide I, v-MIP-II mimetic disulfide-cyclic peptide]
association of the 12G5-CXCR4 antibody to the receptor (CXCR4 [1]): 45 % of control | binding to CXCR3 (anti-CXCR3 antibody) (CXCR3): unaffected | CXCL12-induced calcium efflux (Fluo-3 AM fluorescence) (CXCR4 [2]): Minimal effect | concentration at which CXCL12-dependent migration was inhibited [3]: ≤ 10 nM | CXCL12-mediated p-ERK induction (P-ERK1/2): reduced | cytotoxicity ([4]; SN12C, RXF393, A498 and PES43, Figure S2): no toxicity | CXCL12-induced SN12C-GFP migration [5]: inhibited | duration of mobilization effect compared to AMD3100 (CXCR4 [6]): more durable | stem cell and neutrophil mobilization relative to AMD3100 (CXCR4 [6]): as potent stem cell and neutrophil mobilization as does AMD3100
